Converted amounts (≈) assume the structure as drawn. Read-outs that look alike come from different tables or passages of the source.
Legend:
beagle dogs = experiment: Preclinical toxicology, oral single daily doses for five consecutive days, beagle dogs; conditions: oral vs i.v.
[1] = as above; conditions: beagle, dog, in vivo, po
COV644 Cell Line = experiment: SRB cytotoxicity assay, COV644; type: cell-based, human
Description: In vitro studies were conducted in human mucinous ovarian cancer cell lines including JHOM2B, OMC3, and COV644. In one series of experiments, the dose response curves for BNP1350 (also known as Karenitecin), SN-38 (Irinotecan), and Topotecan were obtained and IC50 values were determined. In a second series of experiments, the effect of BNP7787 (2,2′-dithio-bis-ethane sulfonate; Tavocept) on BNP1350-induced cytotoxicity at selected BNP1350 concentrations was examined.
The JHOM2B and OMC3 cell lines were purchased from Riken Cell Bank (Japan). The COV644 cell line was purchased from SigmaAldrich. Cells were maintained as monolayered cultures in T-75 flasks and then seeded to microtiter plate wells for experiments. Population doubling-times for these three cell lines were long (i.e., exceeding 40 hours, and for some of the cell lines approaching 96 hours); therefore, the Applicants conducted initial pilot experiments and determined optimal seeding density to obtain A570 values in untreated controls that would fall within the linear range of the SRB assay after seven (7) total days of cell growth. JHOM2B cells were cultured in DMEM:F12 (1:1)+0.1 mM non-essential amino acids (NEAA)+10% FBS and were seeded at 6,000 cells per well. OMC3 cells were cultured in HamF12+10% FBS and were seeded at 8,000 cells per well. COV644 cells were cultured in DMEM+2 mM glutamine+10% FBS and were seeded at 6,000 cells per well.
The cells were manipulated in a Microzone laminar flow hood traditionally used for maintaining aseptic environments around automated instrumentation such as microplate robots, and the like. Cells were grown and maintained at 37° C. in a humidified atmosphere containing 5% CO2 in a water jacketed cell culture incubator (Forma Scientific). Cells were counted using a ViCell counter (Beckman-Coulter). An automated plate washer/stacker (ELx405/BioStak from BioTek Instruments) and a microplate reader (SpectraMax Plus from Molecular Devices) were used for conducting the SRB assay and determining A570 values for wells in the plates and the percentage of control values. Prior to SRB assays, cell viability was monitored by evaluation of microtiter plate wells. Dead cells detach and float while living cells remain attached to the bottom of the cell well.
SN-38 (Irinotecan; Sigma H0165, lot MKBQ4981) and Topotecan (Sigma T2705, lot 052M4728V) were purchased from SigmaAldrich. BNP1350 (lot KN-C192-135) and BNP7787 (lot 205001) were synthesized at BioNumerik Pharmaceuticals, Inc. (San Antonio, Tex.). BNP1350, SN38, and Topotecan were prepared as 2.5, 2.5, and 25 mM stocks in DMSO (ATCC, cell culture grade).
The sulforhodamine B (SRB) cytotoxicity assay was used to assess cell survival. Briefly, after the medium was decanted from individual plate wells, trichloroacetic acid (100 μL of 10.0 percent solution) was added to each well, and the plates were incubated at 4° C. for 1 hour. The plates were washed five times with water using an automated microplate washer (Model ELx405, Bio-Tek Instruments), SRB solution (100 μL of 0.4% SRB dissolved in 1.0 percent acetic acid) was added, and plates remained at room temperature for 15 minutes. The plates were then washed five times using acetic acid (1.0 percent), air dried, and bound dye was solubilized in Tris base (150 μL, 10 mM). Plates were agitated (gently) for 5 minutes and the absorbance values of the SRB dye-protein adduct at 570 nanometers (A570) were determined using an automated microtiter plate reader (SpectraMax Plus, Molecular Devices). IC50 values were extrapolated from dose response curves of the data using OriginLab Software.
(§1) The 1050 values exceeded the solubility in medium for each compound—the limit of solubility in cell culture medium for the compounds were as follows: 2 micromolar for BNP1350 and SN38, and 20 micromolar for Topotecan. Cells were treated for periods of 2.5 hours or 6 hours and, in each case, the […] values were not reached. Longer treatments were not performed.

[2] = Limit of solubility in cell culture medium; type: physicochemical; conditions: aqueous buffer
Description: as §1

[3] = biological target: T1, Breast Cancer Resistance Protein (BCRP) (Homo sapiens, UniProt Q9UNQ0); conditions: cited from earlier work
T1 sequence (Q9UNQ0 1-655): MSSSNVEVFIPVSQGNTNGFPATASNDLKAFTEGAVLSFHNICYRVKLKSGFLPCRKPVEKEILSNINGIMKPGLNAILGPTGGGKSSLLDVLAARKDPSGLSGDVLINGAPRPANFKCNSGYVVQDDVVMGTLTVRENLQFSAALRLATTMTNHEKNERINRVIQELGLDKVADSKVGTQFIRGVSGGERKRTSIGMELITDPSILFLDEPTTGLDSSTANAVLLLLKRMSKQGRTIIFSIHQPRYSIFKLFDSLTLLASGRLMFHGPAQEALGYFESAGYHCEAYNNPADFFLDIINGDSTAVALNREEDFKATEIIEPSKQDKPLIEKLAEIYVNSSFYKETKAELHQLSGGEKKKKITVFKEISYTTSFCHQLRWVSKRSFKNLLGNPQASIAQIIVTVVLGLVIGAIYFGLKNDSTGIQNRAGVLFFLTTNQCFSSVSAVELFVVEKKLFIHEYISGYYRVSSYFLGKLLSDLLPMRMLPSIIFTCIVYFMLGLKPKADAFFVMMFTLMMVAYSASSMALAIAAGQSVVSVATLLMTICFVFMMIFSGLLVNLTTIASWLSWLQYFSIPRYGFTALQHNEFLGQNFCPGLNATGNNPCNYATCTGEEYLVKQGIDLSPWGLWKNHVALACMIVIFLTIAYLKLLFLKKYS

Which “MTD of oral relative to intravenous (i.v.) Karenitecin” value (beagle dogs) does the source give for `CC[C@@]1(O)C(=O)OCc2c1cc1n(c2=O)Cc2c-1nc1ccccc1c2CC[Si](C)(C)C` [Karenitecin, (4S)-4-ethyl-4-hydroxy-11-[2-(trimethylsilyl)ethyl]-1H-pyrano[3′:4′:6,7]indolizino[1,2-b]quinoline-3,14(4H,12H)-dione] here?
Its value is “approximately 2 times”.

And the MTD at 5 days [1]?
Its MTD at 5 days is 0.075 mg/kg.

What about the IC50 (COV644 Cell Line; Homo sapiens, 2, 5, and 6 hour drug exposures, did not reach 50% of Control, read-out: IC50, Test 1 (2 replicate plates)) of the same compound?
The IC50 was greater than 2000 nM.

What about the IC50 (COV644 Cell Line; Homo sapiens, 2, 5, and 6 hour drug exposures, did not reach 50% of Control, read-out: IC50, Test 2 (2 to 3 replicate plates)) of the same compound?
Its IC50 is greater than 2000 nM.

And the IC50 (COV644 Cell Line; Homo sapiens, 2, 5, and 6 hour drug exposures, read-out: IC50, Average)?
Its IC50 is greater than 2000 nM.

What about the IC50 (COV644 Cell Line; Homo sapiens, read-out: IC50 values) of the same compound?
Its IC50 is greater than 2000 nM.

What about the solubility [2] of the same compound?
Its solubility is 2 µM (≈ 0.897 µg/mL).

What about the “Sensitivity to tumor-mediated drug resistance mechanisms, including BCRP” value [3] of the same compound?
The value was “insensitive”.
